This passage reports IC50, EC50 and CC50 results from ChEMBL document CHEMBL1201862, “PubChem BioAssay data set” (2004).

For test [1], the target named is Nuclear receptor subfamily 5 group A member 2 (Homo sapiens, UniProt O00482). The format is functional, cell-based.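 Also: HEK293T cells transfected with LRH-1 and a StAR promoter luciferase reporter; potency for inhibitors that lower LRH-1 driven reporter light.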
In another test the target is Steroidogenic factor 1 (Homo sapiens, UniProt Q13285). Kind of test: Counterscreen for inverse agonists of the liver receptor homolog-1 (LRH-1; NR5A2): Luminescence-based cell-based high throughput dose response assay to identify inverse agonists of the Steroidogenic Factor 1 Nuclear Receptor (SF1; NR5A1). The format is functional. (A counterscreen serves to expose hits that act by an unwanted route or on another target.)

Test [2] in a line: nonselective StAR promoter luciferase inhibitors – cell-based, luminescence, luciferase reporter, counter-screen for LRH-1 inverse agonist project, dose response (AID 651969). It is filed as functional. For orientation: In a reporter assay the amount or activity of a reporter protein is the signal.
In another test the target is T1, Caspase-3 (Homo sapiens, UniProt P42574).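 Also: Dose-response selectivity test against caspase-3 for candidate inhibitors of sentrin-specific proteases (SENPs).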
T1 sequence (P42574 whole entry): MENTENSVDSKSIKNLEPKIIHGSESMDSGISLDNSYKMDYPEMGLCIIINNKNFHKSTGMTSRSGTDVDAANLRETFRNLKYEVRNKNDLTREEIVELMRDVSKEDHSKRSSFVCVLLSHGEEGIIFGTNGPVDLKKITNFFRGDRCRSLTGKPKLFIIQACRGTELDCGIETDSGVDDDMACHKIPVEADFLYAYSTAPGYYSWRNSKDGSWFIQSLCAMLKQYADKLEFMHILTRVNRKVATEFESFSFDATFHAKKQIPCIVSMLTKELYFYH
It is filed as functional.

For test [3], the target named is T2, Sentrin-specific protease 7 (Homo sapiens, UniProt Q9BQF6).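 Also: Luminescence-based dose-response confirmation of ultra-high-throughput screening hits, measuring inhibition of SENP7.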
T2 sequence (Q9BQF6 whole entry): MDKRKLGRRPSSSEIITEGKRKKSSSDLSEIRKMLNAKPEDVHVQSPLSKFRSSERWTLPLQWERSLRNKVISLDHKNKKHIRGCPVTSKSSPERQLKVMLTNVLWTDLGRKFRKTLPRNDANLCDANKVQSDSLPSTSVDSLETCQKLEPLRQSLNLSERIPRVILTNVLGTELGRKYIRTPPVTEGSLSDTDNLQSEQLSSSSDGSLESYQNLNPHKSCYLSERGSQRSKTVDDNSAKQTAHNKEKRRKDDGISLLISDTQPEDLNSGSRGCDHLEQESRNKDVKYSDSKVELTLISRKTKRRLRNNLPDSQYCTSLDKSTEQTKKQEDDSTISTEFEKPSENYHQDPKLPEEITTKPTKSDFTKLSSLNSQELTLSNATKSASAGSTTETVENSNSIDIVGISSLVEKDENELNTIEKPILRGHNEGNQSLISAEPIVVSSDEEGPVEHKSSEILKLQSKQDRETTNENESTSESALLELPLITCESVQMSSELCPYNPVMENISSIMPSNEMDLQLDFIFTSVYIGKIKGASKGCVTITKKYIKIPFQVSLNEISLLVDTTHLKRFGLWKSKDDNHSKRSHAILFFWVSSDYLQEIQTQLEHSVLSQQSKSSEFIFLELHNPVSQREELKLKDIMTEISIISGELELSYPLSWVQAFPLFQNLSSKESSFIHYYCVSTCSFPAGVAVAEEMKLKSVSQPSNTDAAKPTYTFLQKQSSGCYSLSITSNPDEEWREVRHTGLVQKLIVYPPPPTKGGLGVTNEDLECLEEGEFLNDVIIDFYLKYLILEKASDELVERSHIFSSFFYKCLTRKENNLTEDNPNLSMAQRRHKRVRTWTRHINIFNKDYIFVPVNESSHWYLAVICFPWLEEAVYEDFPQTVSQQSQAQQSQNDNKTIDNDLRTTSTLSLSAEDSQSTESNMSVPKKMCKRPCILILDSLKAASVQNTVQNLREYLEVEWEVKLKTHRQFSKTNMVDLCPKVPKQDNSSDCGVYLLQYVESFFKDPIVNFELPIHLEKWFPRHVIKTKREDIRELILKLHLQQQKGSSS
It is filed as functional.

Test [4] concerns the target T3, Sentrin-specific protease 6 (Homo sapiens, UniProt Q9GZR1).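 Also: Luminescence-based dose-response confirmatory assay of SENP6 inhibition, following up an ultra-high-throughput screen.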
T3 sequence (Q9GZR1 whole entry): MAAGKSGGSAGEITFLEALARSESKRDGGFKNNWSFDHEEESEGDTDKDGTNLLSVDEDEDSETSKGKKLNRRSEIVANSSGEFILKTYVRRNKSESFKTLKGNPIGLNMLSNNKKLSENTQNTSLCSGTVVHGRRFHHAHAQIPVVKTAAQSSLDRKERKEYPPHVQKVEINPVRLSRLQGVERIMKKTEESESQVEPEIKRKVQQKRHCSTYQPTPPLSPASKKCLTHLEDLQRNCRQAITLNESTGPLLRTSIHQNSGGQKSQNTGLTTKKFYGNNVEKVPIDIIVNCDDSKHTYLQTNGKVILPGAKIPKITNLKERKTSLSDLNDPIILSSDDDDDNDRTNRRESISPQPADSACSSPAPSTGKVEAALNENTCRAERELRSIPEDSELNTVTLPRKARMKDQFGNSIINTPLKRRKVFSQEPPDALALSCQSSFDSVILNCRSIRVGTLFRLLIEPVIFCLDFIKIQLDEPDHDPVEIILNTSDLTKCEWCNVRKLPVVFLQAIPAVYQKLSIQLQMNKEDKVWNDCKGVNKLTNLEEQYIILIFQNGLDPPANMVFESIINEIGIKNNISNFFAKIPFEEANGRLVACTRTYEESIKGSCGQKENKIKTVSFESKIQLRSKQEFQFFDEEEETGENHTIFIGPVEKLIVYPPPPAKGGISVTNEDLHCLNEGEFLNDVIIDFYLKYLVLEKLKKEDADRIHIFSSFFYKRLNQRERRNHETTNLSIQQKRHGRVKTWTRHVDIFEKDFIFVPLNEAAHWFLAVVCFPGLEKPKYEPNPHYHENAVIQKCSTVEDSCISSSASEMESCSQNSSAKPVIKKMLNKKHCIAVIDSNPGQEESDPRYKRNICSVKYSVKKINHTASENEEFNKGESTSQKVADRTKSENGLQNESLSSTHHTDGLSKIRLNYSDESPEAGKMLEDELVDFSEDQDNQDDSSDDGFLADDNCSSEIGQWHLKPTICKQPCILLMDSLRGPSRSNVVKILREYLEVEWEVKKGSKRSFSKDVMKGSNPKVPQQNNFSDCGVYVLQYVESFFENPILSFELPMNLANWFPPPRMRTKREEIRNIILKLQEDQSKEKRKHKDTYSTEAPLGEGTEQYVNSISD
The format is functional.

The target of test [5] is T4, Sentrin-specific protease 8 (Homo sapiens, UniProt Q96LD8).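 Also: luminescence read-out of SENP8 inhibition, dose-response confirmation following an ultra-high-throughput screen.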
T4 sequence (Q96LD8 whole entry): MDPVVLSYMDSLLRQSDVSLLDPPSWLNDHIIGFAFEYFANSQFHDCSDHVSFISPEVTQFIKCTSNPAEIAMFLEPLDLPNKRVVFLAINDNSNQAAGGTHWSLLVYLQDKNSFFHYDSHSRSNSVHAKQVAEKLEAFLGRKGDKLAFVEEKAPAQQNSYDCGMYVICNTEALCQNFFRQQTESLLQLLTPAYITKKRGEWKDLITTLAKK
The format is functional.

Test [6] has as its target Luciferin 4-monooxygenase (Photinus pyralis, UniProt P08659). Kind of test: inhibition of purified Photinus pyralis luciferase – biochemical, luminescence, dose response (AID 1891).
Test [7] in a line: Luminescence Cell-Based Dose Confirmation HTS to Identify Inhibitors of Platelet Dense Granule Release. [Related pubchem assays: 1663 (Primary HTS), 1678 (Summary of Project)]. The format is functional.
A short description of test [8]: viability loss in HeLa cells – cytotoxicity control for MgcRacGAP inhibitor project, dose response (AID 624300). The format is functional.
In test [9] the target is T5, Rac GTPase-activating protein 1 (Homo sapiens, UniProt Q9H0H5).
T5 sequence (Q9H0H5 whole entry): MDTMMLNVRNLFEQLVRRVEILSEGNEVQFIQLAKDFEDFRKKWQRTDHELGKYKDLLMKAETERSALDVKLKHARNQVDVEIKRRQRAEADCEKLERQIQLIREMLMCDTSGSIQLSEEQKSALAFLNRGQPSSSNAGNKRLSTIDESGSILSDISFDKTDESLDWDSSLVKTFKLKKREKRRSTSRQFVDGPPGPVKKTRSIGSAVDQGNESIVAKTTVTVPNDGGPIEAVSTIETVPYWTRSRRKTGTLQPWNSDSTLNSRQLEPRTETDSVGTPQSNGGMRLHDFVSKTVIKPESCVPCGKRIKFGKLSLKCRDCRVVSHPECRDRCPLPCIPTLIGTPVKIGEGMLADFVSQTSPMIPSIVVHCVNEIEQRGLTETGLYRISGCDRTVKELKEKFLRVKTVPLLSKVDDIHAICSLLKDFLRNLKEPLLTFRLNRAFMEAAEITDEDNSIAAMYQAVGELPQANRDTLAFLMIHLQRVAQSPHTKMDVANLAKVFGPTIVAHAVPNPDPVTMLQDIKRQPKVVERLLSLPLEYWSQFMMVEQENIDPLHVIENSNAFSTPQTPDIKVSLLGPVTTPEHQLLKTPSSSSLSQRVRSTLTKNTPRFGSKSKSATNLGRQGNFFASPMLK
As to the kind of experiment: blockers of MgcRacGAP-driven Rac1 GTP hydrolysis – biochemical, ADP Hunter fluorescence, primary and confirmatory, confirmation (AID 624330). It is filed as functional.

For test [10], the target named is T6, Polyadenylate-binding protein 1 (Homo sapiens, UniProt P11940). As to the kind of experiment: MLLE binding blockers, Cy5 peptide tracer – biochemical, fluorescence polarization, Cy5-PAM2 peptide, secondary, miRNA deadenylation inhibitor project, dose response (AID 602260). It is filed as functional. The note with it: read-out: IC50_Mean.
Test [11] addresses T6, Polyadenylate-binding protein 1. As to the kind of experiment: MLLE domain peptide-binding blockers, IC50 – biochemical, fluorescence polarization, FITC-PAM2 peptide, dose response (AID 602259). It is filed as functional. The note with it: read-out: IC50_Mean. For orientation: Polarisation of emitted light reports the rotation of a fluorescent probe.

Activity calls are given as the source filed them.

Chain of Steroidogenic factor 1 (Q13285 whole entry): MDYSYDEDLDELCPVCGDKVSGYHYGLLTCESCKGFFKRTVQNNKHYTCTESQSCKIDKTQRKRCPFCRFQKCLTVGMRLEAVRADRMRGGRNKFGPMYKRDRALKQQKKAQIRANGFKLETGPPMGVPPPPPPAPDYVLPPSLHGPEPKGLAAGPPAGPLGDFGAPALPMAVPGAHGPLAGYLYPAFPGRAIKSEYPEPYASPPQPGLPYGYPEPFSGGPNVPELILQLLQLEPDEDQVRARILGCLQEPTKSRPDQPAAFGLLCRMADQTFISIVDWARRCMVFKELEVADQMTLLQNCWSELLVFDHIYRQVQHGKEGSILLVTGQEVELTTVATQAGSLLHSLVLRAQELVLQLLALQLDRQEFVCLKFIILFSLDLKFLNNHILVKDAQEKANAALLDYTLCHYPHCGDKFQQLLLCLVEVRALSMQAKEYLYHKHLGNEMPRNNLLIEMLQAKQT
Chain of Nuclear receptor subfamily 5 group A member 2 (O00482 whole entry): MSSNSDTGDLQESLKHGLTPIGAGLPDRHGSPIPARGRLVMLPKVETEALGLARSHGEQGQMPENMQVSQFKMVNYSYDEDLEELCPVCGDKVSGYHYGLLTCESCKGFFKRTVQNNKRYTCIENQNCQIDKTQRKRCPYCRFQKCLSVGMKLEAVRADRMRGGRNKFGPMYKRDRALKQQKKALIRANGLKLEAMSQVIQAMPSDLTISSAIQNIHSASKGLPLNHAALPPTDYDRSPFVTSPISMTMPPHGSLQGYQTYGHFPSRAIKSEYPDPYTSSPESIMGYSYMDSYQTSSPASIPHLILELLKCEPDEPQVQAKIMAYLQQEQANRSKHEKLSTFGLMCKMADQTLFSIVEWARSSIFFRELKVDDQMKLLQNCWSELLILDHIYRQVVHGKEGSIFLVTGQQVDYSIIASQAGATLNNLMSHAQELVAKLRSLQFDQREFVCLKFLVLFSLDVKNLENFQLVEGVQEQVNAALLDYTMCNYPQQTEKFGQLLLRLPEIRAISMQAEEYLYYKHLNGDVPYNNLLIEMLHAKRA
T6 sequence (P11940 whole entry, the tested form may be a part): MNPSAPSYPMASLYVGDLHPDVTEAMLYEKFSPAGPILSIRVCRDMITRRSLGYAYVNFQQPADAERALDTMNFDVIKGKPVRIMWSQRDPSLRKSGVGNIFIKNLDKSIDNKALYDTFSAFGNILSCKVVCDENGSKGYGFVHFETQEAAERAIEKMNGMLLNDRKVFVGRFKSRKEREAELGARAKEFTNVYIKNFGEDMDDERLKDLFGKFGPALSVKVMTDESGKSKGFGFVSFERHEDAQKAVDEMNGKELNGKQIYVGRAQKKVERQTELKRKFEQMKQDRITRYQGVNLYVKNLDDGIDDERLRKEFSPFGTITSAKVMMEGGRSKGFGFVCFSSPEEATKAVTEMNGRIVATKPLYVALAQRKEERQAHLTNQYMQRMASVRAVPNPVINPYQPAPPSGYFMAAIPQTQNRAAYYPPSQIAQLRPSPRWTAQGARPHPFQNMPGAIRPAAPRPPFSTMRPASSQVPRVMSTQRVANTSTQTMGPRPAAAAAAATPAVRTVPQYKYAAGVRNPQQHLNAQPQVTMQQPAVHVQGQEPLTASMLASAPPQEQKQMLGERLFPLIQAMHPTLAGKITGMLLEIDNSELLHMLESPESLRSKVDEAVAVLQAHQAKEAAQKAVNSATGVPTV
Chain of Luciferin 4-monooxygenase (P08659 whole entry): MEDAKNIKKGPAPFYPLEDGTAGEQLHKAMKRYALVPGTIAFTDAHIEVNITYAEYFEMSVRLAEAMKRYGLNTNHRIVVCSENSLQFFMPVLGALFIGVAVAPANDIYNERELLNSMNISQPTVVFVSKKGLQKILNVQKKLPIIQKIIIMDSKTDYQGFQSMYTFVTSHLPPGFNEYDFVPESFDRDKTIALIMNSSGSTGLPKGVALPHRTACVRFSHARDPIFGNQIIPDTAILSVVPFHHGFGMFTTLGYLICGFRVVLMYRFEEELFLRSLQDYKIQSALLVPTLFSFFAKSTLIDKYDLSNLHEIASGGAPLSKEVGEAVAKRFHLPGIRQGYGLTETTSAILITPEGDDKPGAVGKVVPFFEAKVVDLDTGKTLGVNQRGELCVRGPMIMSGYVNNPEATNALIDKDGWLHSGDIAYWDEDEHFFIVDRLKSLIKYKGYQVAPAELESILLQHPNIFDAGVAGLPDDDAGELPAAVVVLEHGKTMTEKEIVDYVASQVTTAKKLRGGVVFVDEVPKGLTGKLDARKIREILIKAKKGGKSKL

In the case of `COc1ccc(C2(C)NC(=O)N(CC(=O)Nc3ccc(C)cc3Br)C2=O)cc1OC` (configuration not stated), the IC50 is 35.9 µM (inactive) in [1], 11.7 µM (inactive) at Steroidogenic factor 1 and 35.9 µM (inactive) in [2].
On to `O=C(Nc1cc(Cl)cc(Cl)c1)c1cccc(OC(F)F)c1`, for which the IC50 at Caspase-3 was > 100 µM (inactive); in [3], 11.8 µM (active); in test [4], 46.9 µM (active); in test [5], 53.9 µM (active).
As to `COCCn1c(C)cc(/C=C(\C#N)C(=O)OCC(=O)Nc2ccc(S(N)(=O)=O)cc2)c1C`, the IC50 was 35.9 µM (inactive) in test [1], 3.99 µM (active) at Steroidogenic factor 1 and 35.9 µM (inactive) in test [2].
Consider `COc1ccc(C(=O)CNc2ccccc2Br)cc1`, for which the IC50 on Caspase-3 is 22 µM (active); in test [3], 6.34 µM (active); in test [4], 27.4 µM (active); in test [5] it was 82.8 µM (active).
For `CCOc1ccccc1CN(CCc1ccc2c(c1)OCO2)Cc1ccccn1`, the EC50 in test [6] and in [7] was > 112 µM (not active) throughout. In [8], the CC50 was 100 µM (active). In addition, the IC50 in test [9] was 172 µM (active).
Regarding `c1ccc(Cn2nc(-c3ccccc3)nc2-c2ccccc2)cc1`, the IC50 was 32 µM (active) on Caspase-3, 8.63 µM (active) in test [3], 25 µM (active) in test [4] and 30.4 µM (active) in test [5].
With `COc1ccc(S(=O)(=O)N2CCN(CC(=O)Nc3ccc(C)c(F)c3)CC2)cc1`, the results for the IC50 (in test [1]; at Steroidogenic factor 1; in test [2]) were 6.16 µM (active), 3.05 µM (active) and 35.9 µM (inactive), respectively.
With `O=C(CCCN1C(=O)/C(=C/c2ccccc2Cl)SC1=S)NCCCN1CCOCC1`, the IC50 is 34.2 µM (active) at Caspase-3; 14.8 µM (active) in test [3]; 36.7 µM (active) in test [4]; 43.6 µM (active) in [5]; > 66 µM (inactive) in test [10]; > 66 µM (inactive) in [11].
For the compound `O=C(Nc1ccc(Br)cc1)Nc1ccccc1Cl`, the IC50 on Caspase-3 is 24.6 µM (active); in [3] it was 7.21 µM (active); in test [4] it was 7.19 µM (active); in test [5], 26.8 µM (active).
In the case of `COc1cccc(C(=O)Oc2ccc3ccc(O)cc3c2)c1`, the IC50 was 40.1 µM (active) on Caspase-3, 7.37 µM (active) in test [3], 20.9 µM (active) in test [4] and 17 µM (active) in [5].
For the compound `COC(=O)c1ccc(NC(=O)CSc2nncn2-c2cccnc2)cc1`, the IC50 in [1] is 35.9 µM (inactive); at Steroidogenic factor 1 it was 14 µM (inactive); in test [2] it was 35.9 µM (inactive).
As to `CCOc1ccc(NC(=O)CSc2nnc(C(C)C)n2CC)cc1`, the IC50 in test [1] is 35.9 µM (inactive); at Steroidogenic factor 1, 6.03 µM (active); in [2], 35.9 µM (inactive).
On to `CC(O)(c1cccc(F)c1)c1nc(-c2ccc(S(C)(=O)=O)cc2)cs1` (configuration not stated), for which the IC50 was 10.3 µM (inactive) in test [1], 3.64 µM (active) at Steroidogenic factor 1 and 35.9 µM (inactive) in test [2].
With `N#Cc1cc([N+](=O)[O-])ccc1NC(=O)COC(=O)C1CCC(=O)N1` (configuration not stated), the results for the IC50 (in [1]; on Steroidogenic factor 1; in test [2]) were 6.37 µM (active), 4.87 µM (active) and 35.9 µM (inactive), respectively.
Consider `CCCN1C(=O)/C(=C/c2cc(C)n(C)c2C)S/C1=N/c1ccc(OCC)cc1`, for which, in test [8], the CC50 is 100 µM (active).

A word on the EC50: it is the midpoint of the concentration-response curve. High values mean lower potency in that assay, low ones higher potency in that assay. The term CC50 denotes the concentration giving 50% cytotoxicity.
